Columns and labels:
[1] = test system: WSU-DLCL2 xenografts (CD20+); assay: In vivo antitumor efficacy against WSU-DLCL2 xenografts, obinutuzumab study (FIG. 1-2); parameters: species or system human; details: for median tumor volume: venetoclax 100 mg/kg, RG6146 30 mg/kg; for TGI % (tumor growth inhibition compared to control) / npTCR (non-parametric Treatment to Control Ratio) / Tumor free mice: Day 36; for TGI % (tumor growth inhibition compared to control): obinutuzumab 10 mg/kg once weekly; for Tumor free mice: tumor free mice / mice in group
Experimental: (§1) Antibody buffer included histidine. Antibody solution was diluted appropriately in buffer from stock prior injections. BET inhibitor RG6146 was provided as powder from Roche, Basel, Switzerland and resuspended prior to use. Bcl-2 inhibitor GDC-0199 was provided by Genentech, South San Francisco, USA and formulated prior to use.
(§2) The original WSU-DLCL2 human B cell NHL cell line (DLBCL) was purchased from DSMZ (Braunschweig, Germany). Expansion of tumor cells for the transplantation was done by the TAP CompacT CellBase Cell Culture Roboter according to the protocol. Tumor cell line was routinely cultured in RPMI 1640 medium, FCS 10% and L-Glutamin 2 mM at 37° C. in a water-saturated atmosphere at 5% CO2. Culture passage was performed with trypsin/EDTA 1× splitting twice/week and passage 3 used for transplantation.
(§3) Female SCID beige mice, age 6-7 weeks at arrival, maintained under specific-pathogen-free condition with daily cycles of 12 h light/12 h darkness according to committed guidelines. Experimental study protocol was reviewed and approved by local government. After arrival animals were maintained in animal facility for one week to get accustomed to new environment and for observation. Continuous health monitoring was carried out on regular basis. Diet food and autoclaved water were provided ad libitum.
(§4) Animals were controlled daily for clinical symptoms and detection of adverse effects. For monitoring throughout the experiment body weight of animals was documented.
CD20 antibody obinutuzumab was administered as single agent and in combination at 10 mg/kg ip once weekly on days 10, 17, 24 and 31. The corresponding vehicle was administered on the same days. BET inhibitor RG6146 ip treatment at 30 mg/kg was done as single agent and in combination on days 10-18, 21-25 and 28-32. Finally, Bcl-2 inhibitor venetoclax (GDC-0199) was given orally at 100 mg/kg on days 10-18, 21-25 and 28-32 as single agent and in combination.
For the study shown in FIG. 1, WSU-DLCL2 human Diffuse Large B-cell Lymphoma (DLBCL) cells (CD20+) were s.c. inoculated with Matrigel onto female SCID beige mice. Tumor bearing mice were randomized 10 days later to the indicated study groups and compound treatment initiated. Tumor bearing animals were treated with vehicle control, with the BET inhibitor RG6146 at 30 mg/kg, with the anti-CD20 antibody obinutuzumab at 10 mg/kg or with Bcl-2 inhibitor venetoclax (GDC-0199) at 100 mg/kg as single agent. Additionally, three groups were treated with a dual combination of either RG6146 and venetoclax, or RG6146 and obinutuzumab or obinutuzumab and venetoclax. Finally, one study group received the triple combination of BET inhibitor RG6146, CD20 antibody obinutuzumab and Bcl-2 inhibitor venetoclax (GDC-0199). […] In constrast to this, the respective double combination regimens reached a tumor regrowth after about 20 days.

[2] = test system: WSU-DLCL2 xenografts (CD20+); assay: In vivo antitumor efficacy against WSU-DLCL2 xenografts, rituximab study (FIG. 3); parameters: species or system human; details: for median tumor volume / npTCR (non-parametric Treatment to Control Ratio) / Tumor free mice: rituximab 10 mg/kg; for median tumor volume: venetoclax 100 mg/kg, RG6146 30 mg/kg; for TGI % (tumor growth inhibition): rituximab 10 mg/kg once weekly, venetoclax 100 mg/kg po and RG6146 30 mg/kg ip days 11-17; for npTCR (non-parametric Treatment to Control Ratio) / Tumor free mice: venetoclax 100 mg/kg po, RG6146 30 mg/kg ip; for Tumor free mice: tumor free mice / mice in group
Experimental: as §1, §2, §3, §4
The corresponding vehicle was administered on the same days. BET inhibitor RG6146 ip treatment at 30 mg/kg was done as single agent and in combination on days 11-17. Finally, bcl-2 inhibitor venetoclax (GDC-0199) was given orally at 100 mg/kg on days 11-17 as single agent and in combination.

[3] = Day 10 (randomisation, start of treatment), s.c. xenograft in female SCID beige mice, obinutuzumab 10 mg/kg
[4] = Day 14, female SCID beige mice, obinutuzumab 10 mg/kg
[5] = Day 17, female SCID beige mice, obinutuzumab 10 mg/kg
[6] = Day 21, female SCID beige mice, obinutuzumab 10 mg/kg
[7] = Day 24, female SCID beige mice, obinutuzumab 10 mg/kg
[8] = Day 28, female SCID beige mice, obinutuzumab 10 mg/kg
[9] = Day 31, female SCID beige mice, obinutuzumab 10 mg/kg
[10] = Day 36 (treatment ended day 32), female SCID beige mice, obinutuzumab 10 mg/kg
[11] = female SCID beige mice, venetoclax 100 mg/kg po, RG6146 30 mg/kg ip
[12] = obinutuzumab 10 mg/kg, venetoclax 100 mg/kg po, RG6146 30 mg/kg ip
[13] = Day 11, s.c. xenograft in female SCID beige mice

Row | Compound | median tumor volume [1, 3] | median tumor volume [1, 4] | median tumor volume [1, 5] | median tumor volume [1, 6] | median tumor volume [1, 7] | median tumor volume [1, 8] | median tumor volume [1, 9] | median tumor volume [1, 10] | TGI % (tumor growth inhibition compared to control) [1, 11] | npTCR (non-parametric Treatment to Control Ratio) [1, 12] | Tumor free mice [1, 12] | median tumor volume [2, 13] | median tumor volume ([2]; Day 14, female SCID beige mice) | median tumor volume ([2]; Day 18, female SCID beige mice) | median tumor volume ([2]; Day 21, female SCID beige mice) | median tumor volume ([2]; Day 25, female SCID beige mice) | TGI % (tumor growth inhibition) ([2]; Day 28, female SCID beige mice) | median tumor volume ([2]; Day 28, female SCID beige mice) | npTCR (non-parametric Treatment to Control Ratio) ([2]; Day 28) | Tumor free mice ([2]; Day 28) | further results
1 | Cc1sc2c(c1C)C(c1ccc(Cl)cc1)=N[C@@H](CC(=O)NCCCN1CCN(C)CC1)c1nnc(C)n1-2 [RG6146, 2-[(S)-4-(4-Chloro-phenyl)-2,3,9-trimethyl-6H-1-thia-5,7,8,9a-tetraaza-cyclopenta[e]azulen-6-yl]-N-[3-(4-methyl-piperazin-1-yl)-propyl]-acetamide] | 137 mm^3 | 200 mm^3 | 185 mm^3 | 198 mm^3 | 387 mm^3 | 441 mm^3 | 489 mm^3 | 962 mm^3 | 46% | 0.50 | 0/9 | 134 mm^3 | 161 mm^3 | 270 mm^3 | 245 mm^3 | 453 mm^3 | 30% | 550 mm^3 | 0.71 | 0/9 | –
2 | obinutuzumab: Type II anti-CD20 antibody, synonymous for GA101, formerly known as afutuzumab | 136 mm^3 | 131 mm^3 | 112 mm^3 | 110 mm^3 | 111 mm^3 | 124 mm^3 | 132 mm^3 | 382 mm^3 | 84% | 0.20 | 0/10 | – | – | – | – | – | – | – | – | – | median tumor volume ([1]; Day 39 (follow-up after treatment), female SCID beige mice, obinutuzumab 10 mg/kg): 405 mm^3; median tumor volume ([1]; Day 43 (follow-up after treatment), female SCID beige mice, obinutuzumab 10 mg/kg): 700 mm^3; median tumor volume ([1]; Day 46 (follow-up after treatment), female SCID beige mice, obinutuzumab 10 mg/kg): 713 mm^3; median tumor volume ([1]; Day 50 (follow-up after treatment), female SCID beige mice, obinutuzumab 10 mg/kg): 758 mm^3; Tumor growth delay (Days): time until relative tumor volume reached again 100% (100% at beginning, Day 10) ([1]; female SCID beige mice, obinutuzumab 10 mg/kg, venetoclax 100 mg/kg po, RG6146 30 mg/kg ip): 21 days
3 | CC1(C)CCC(CN2CCN(c3ccc(C(=O)NS(=O)(=O)c4ccc(NCC5CCOCC5)c([N+](=O)[O-])c4)c(Oc4cnc5[nH]ccc5c4)c3)CC2)=C(c2ccc(Cl)cc2)C1 [venetoclax, 4-(4-{[2-(4-chlorophenyl)-4,4-dimethylcyclohex-1-en-1-yl]methyl}piperazin-1-yl)-N-({3-nitro-4-[(tetrahydro-2H-pyran-4-ylmethyl)amino]phenyl}sulfonyl)-2-(1H-pyrrolo[2,3-b]pyridin-5-yloxy)benzamide] | 137 mm^3 | 202 mm^3 | 226 mm^3 | 212 mm^3 | 337 mm^3 | 494 mm^3 | 565 mm^3 | 906 mm^3 | 49% | 0.53 | 0/10 | 136 mm^3 | 162 mm^3 | 267 mm^3 | 388 mm^3 | 497 mm^3 | 34% | 554 mm^3 | 0.66 | 0/10 | –

— patent US20200237905A1, “COMBINATION THERAPY WITH A BET INHIBITOR, A BCL-2 INHIBITOR AND AN ANTI-CD20 ANTIBODY” (Hoffmann-La Roche Inc., priority 2017, published 2020)
